Experimental data taken from patent US10220026B2, “Micelle containing epirubicin-complexed block copolymer and anti-cancer agent, and pharmaceutical composition containing said micelle applicable to treatment of cancer, resistant cancer or metastatic cancer” (priority 2014, dated 2019).
Blank lines part the entries; values can stand above or below the molecule they belong to.

How the values were obtained:
[1] = Incorporation of compounds in micelles of epirubicin-conjugated block copolymer (HPLC, DLS); type: physicochemical; details: for detection of the compound in micelles formed by epirubicin-conjugated block copolymer: micelles produced by the method of Example 1
Protocol: The mixed solution was applied to a rotary evaporator (N-1200AV (Elyra)) followed by evaporating the methanol. After having evaporated the methanol, HEPES buffer (10 mM, pH 7.4, 50 ml) was added to the flask followed by carrying out sonication for 30 minutes (Bioruptor, Cosmo Bio Co., Ltd., Japan). Subsequently, the solution was passed through a polyethersulfone (PES) filter (0.22 μm) (Millipore Corp.). The solution was further purified by subjecting to five rounds of ultrafiltration (molecular weight cutoff: 30,000 Da) (Centricon Plus-20, Millipore Corp.) for 15 minutes (while adding 5 ml of HEPES buffer (10 mM, pH 7.4) for each round of ultrafiltration) followed by concentrating to 15 ml. Finally, the solution was passed through a PES filter (0.22 μm).

[2] = tested on: mouse kidney cancer-derived cells (Renca); assay: In vivo anti-cancer activity in orthotopic kidney cancer model (survival, lung metastasis, CD105); details: Balb/c mice, intravenous, epirubicin equivalent 6 mg/kg, Days 4, 11, 18
Protocol: 2×10^4 mouse kidney cancer-derived cells (Renca) (50 μl, containing 10% Matrigel) were administered into the renal capsules of Balb/c mice using the method described in Dinney, C. […] Four days after administering into the kidney, the drugs indicated in the following table were diluted to their prescribed dosages with physiological saline for injection (Otsuka Pharmaceutical Co., Ltd.) and administered into the caudal vein (on Days 4, 11 and 18).
HEPES solution was administered instead of a drug for use as a negative control. […] The days in which the animals died were recorded, and survival curves were verified according to the Kaplan-Meier method using Prism software and the presence of significant differences was tested using the log-rank test.
Sixty days later, the diameters of tumors that had metastasized to the lung were measured by 3DμCT (R-mCT2m, Rigaku Corp., Japan) for the experimental animals, or in the case an animal had died, the radius was measured directly following autopsy followed by determination of tumor volume (using the equation 4/3×π×r^3). […] Moreover, the number of cells expressing the stem cell marker, CD105, was measured by flow cytometry.

[3] = tested on: Epirubicin-resistant breast cancer cells (MCF-7); assay: Elimination of epirubicin and eFluxx-ID-GFP by resistant strain (confocal microscopy), breast cancer; type: cell-based, human; details: epirubicin-resistant strain; concentrations of Table 6
Protocol: (§1) Epirubicin-resistant breast cancer cells (MCF-7) and cisplatin-resistant lung cancer cells (H460) were respectively disseminated in each of the wells of an 8-well Tek chambered cover glass (Thermo Fisher Scientific K.K.) at 1×10^4 cells/well followed by culturing overnight. The medium was then replaced with 200 μl of RPMI1640 (phenol red-free) containing 0.1 μg/ml of Hoechst 33342 and 10% FBS.
(§2) 200 μl of eFluxx-ID-GFP solution were added 1 hour after addition of drug. The medium was replaced with RPMI1640 medium containing 10% FBS 30 minutes after addition followed by observation with an LSM780 confocal microscope and taking photographs thereof (FIGS. 12B and 13B). Cells subjected to the procedure prior to acquiring resistance were used as a control and epirubicin was added for the drug. In this experiment, fluorescence-labeled epirubicin (manufacturer) was used for the epirubicin.

[4] = tested on: epirubicin-resistant human mesothelioma cells (MSTO-211H-luc); assay: In vivo anti-cancer activity in orthotopic mesothelioma model (survival); details: female nude mice, intravenous, epirubicin equivalent 6 mg/kg, Days 5-63
Protocol: Human mesothelioma MSTO-211H was transfected with luciferase based on the method described in Mol. Ther., 2012 April, 20(4), 769-777 to obtain a luciferase-expressing strain (MSTO-211H-luc). MSTO-211H-luc cells were cultured for 3 months in medium containing 0.2 μg/ml of epirubicin to produce epirubicin-resistant human mesothelioma cells (MSTO-211H-luc). 1×10^6 of the epirubicin-resistant MSTO-211H-luc cells were administered into the thoracic cavity of female nude mice to produce an orthotopic implant model. Five days after administration, drugs at the dosages shown in the following table were diluted with physiological saline for injection (Otsuka Pharmaceutical Co., Ltd.) and administered into the caudal vein (on Days 5, 9, 13, 23, 33, 43, 53 and 63).
HEPES solution was administered instead of a drug for use as a negative control. […] D-luciferin (Summit Pharmaceuticals International Corp.) was administered intraperitoneally, and body weights of the mice were measured simultaneous to measuring luminescence intensity of the luciferase twice a week using an IVIS Imaging System (Summit Pharmaceuticals International Corp.) (FIGS. 6A to 6C). […] Significant differences as determined with a log-rank test were observed between the negative control and Epi (P=0.016), between Epi and Epi Micelle (P=0.0001) and between Epi Micelle and STS+Epi Micelle (P=0.0012).

[5] = tested on: cisplatin-resistant lung cancer cells (H460); assay: Elimination of epirubicin and eFluxx-ID-GFP by resistant strain (confocal microscopy), lung cancer; type: cell-based, human; details: concentrations of Table 6
Protocol: as §1, §2

[6] = tested on: cisplatin-resistant human lung cancer H460-luc cells; assay: In vivo anti-cancer activity in orthotopic lung cancer model (survival); details: female nude mice, intravenous, epirubicin equivalent 6 mg/kg, Days 4, 11, 18, 25, 32
Protocol: Luciferase-expressing lung cancer H460-luc cells (JCRB) were cultured for 3 months in medium containing 1 μg/ml of cisplatin to acquire a cisplatin-resistant strain. 2×10^6 cells of the cisplatin-resistant strain H460-luc (containing 10% Matrigel (Becton Dickinson) were implanted into the left lower lobe of the lungs of female nude mice in accordance with the method described in Fushiki, et al., Cancer Sci., 2009 August, 100(8). Four days after implant, the drugs indicated in the following table were diluted to their prescribed dosages with physiological saline for injection (Otsuka Pharmaceutical Co., Ltd.) and administered into the caudal vein (on Days 4, 11, 18, 25 and 32).
HEPES solution was administered instead of a drug for use as a negative control. […] D-luciferin (Summit Pharmaceuticals International Corp.) was administered intraperitoneally and luminescence intensity of the luciferase was measured twice a week using an IVIS Imaging System (Summit Pharmaceuticals International Corp.) (FIG. 8A). Survival curves were verified according to the Kaplan-Meier method using Prism software and the presence of significant differences was tested using the log-rank test.

[7] = tested on: MSTO-211H mesothelioma cells; assay: Aldefluor assay (FACS) on cancer stem cells in mesothelioma; type: cell-based, human; details: 1 μM cisplatin, 0.01 μM pemetrexed, 0.001 μM staurosporine, 0.01 μM UCN-1; 72 hours or 24 hours
[8] = tested on: epirubicin-resistant mesothelioma cells (MSTO-211H EPI-R); assay: eFluxx-ID Green Multidrug Resistance Assay (drug elimination activity, MAF), mesothelioma; type: cell-based, human; details: 30 μM
Protocol: (§3) More specifically, after detaching each of the cultured cells by incubating in trypsin-EDTA solution, the cells were washed with medium to obtain cell suspensions having a concentration of 1×10^4 cells/ml. […] 125 μl of eFluxx-ID-GFP solution were added 1 hour after addition of drug at the concentration directed in the kit. Following addition, the cell suspensions were incubated for 30 minutes at 37° C. followed by the addition of DAPI at a final concentration of 0.5 μg/ml and analyzing with a flow cytometer (BD LSR II, BD Biosciences). MAF values shown in the figures refer to the multidrug resistance activity factor (MAF) calculated from the mean fluorescence intensity of flow cytometry, and a high value for MAF indicates a greater inhibitory effect on ABC transporters. The calculation formulas were as indicated below: MAFMDR-1=100×(FMDR-1−F0)/FMDR-1 MAFMRP=100×(FMRP−F0)/FMRP NAFBCRP=100×(FBCRP−F0)/FBCRP [Equation 4] (wherein, F represents the mean flow cytometry value during addition of inhibitor, and F0 represents the mean flow cytometry value when inhibitor is not added).

[9] = tested on: epirubicin-resistant breast cancer cells (MCF-7 EPI-R); assay: eFluxx-ID Green Multidrug Resistance Assay (drug elimination activity, MAF), breast cancer; type: cell-based, human; details: 30 μM
Protocol: as §3

[10] = tested on: cisplatin-resistant lung cancer cells (H460 Cis-R); assay: eFluxx-ID Green Multidrug Resistance Assay (drug elimination activity, MAF), lung cancer; type: cell-based, human; details: 30 μM
Protocol: as §3

[11] = tested on: A549 cells highly expressing MRP; assay: eFluxx-ID Green Multidrug Resistance Assay (drug elimination activity, MAF), MRP; type: cell-based; details: 30 μM
Protocol: as §3

[12] = tested on: Hela cells highly expressing BCRP; assay: eFluxx-ID Green Multidrug Resistance Assay (drug elimination activity, MAF), BCRP; type: cell-based; details: 30 μM
Protocol: as §3

[13] = tested on: Mesothelioma cell line MSTO-211H cells; assay: Effect of micelle incorporation during addition of hAGP, Cell Counting Kit-8 cell survival; type: cell-based, human; details: hAGP 0.5 mg/ml; STS 0.02 μg/ml, epirubicin 0.1 μg/ml
Protocol: Anti-cancer activity was measured according to the method indicated below using the Cell Counting Kit-8 (Dojindo, Japan). Mesothelioma cell line MSTO-211H cells were disseminated at 1×10^3 cells/well to 3×10^3 cells/well and cultured. The medium was replaced on the following day followed by the addition of 50 μl of medium. […] 72 hours later, 10 μl of Cell Counting Kit-8 were added followed by measuring optical absorbance at 450 nm 1 hour later with a microplate reader (Model 680, BioRad, Hercules, Calif.). […] Cell survival rate (%)=[(As−Ab)/(Ac−Ab)×100 [Equation 2]
In the equation, As indicates the optical absorbance of the specimen (wells containing cells, test substance and Cell Counting Kit solution), Ac indicates the optical absorbance of a negative control (wells containing only cells and Cell Counting Kit solution) (absence of test substance), and Ab indicates the optical absorbance of a blank (cell-free wells containing only medium and Cell Counting Kit solution).

SMILES: C[C@]12O[C@H](C[C@]1(O)CO)n1c3ccccc3c3c4c(c5c6ccccc6n2c5c31)CNC4=O [CEP701/lestaurtinib, lestaurtinib]
detection of the compound in micelles formed by epirubicin-conjugated block copolymer [1]: able to be detected in the micelles

SMILES: COc1cccc2c1C(=O)c1c(O)c3c(c(O)c1C2=O)C[C@@](O)(C(=O)CO)C[C@@H]3O[C@H]1C[C@H](N)[C@@H](O)[C@H](C)O1 [Epi, epirubicin]
survival, log-rank test P versus negative control [2]: 0.0001
elimination of epirubicin and eFluxx-ID outside the cells [3]: eliminated outside cells
survival, log-rank test P versus negative control [4]: 0.016
elimination of epirubicin and eFluxx-ID outside the cells [5]: eliminated outside cells
survival, significant difference versus negative control (log-rank test P) [6]: not observed

detection of the compound in micelles formed by epirubicin-conjugated block copolymer [1]: able to be detected in the micelles
SMILES: CO[C@@H]1[C@H](N(C)C(=O)c2ccccc2)C[C@H]2O[C@]1(C)n1c3ccccc3c3c4c(c5c6ccccc6n2c5c31)C(=O)NC4 [PKC412]

SMILES: CN[C@@H]1C[C@H]2O[C@@](C)([C@@H]1OC)n1c3ccccc3c3c4c(c5c6ccccc6n2c5c31)C(=O)N[C@H]4O [UCN-01, 7-hydroxystaurosporine]
Aldefluor-positive cells (cancer stem cells) [7]: decreased
detection of the compound in micelles formed by epirubicin-conjugated block copolymer [1]: able to be detected in the micelles

SMILES: N.N.[Cl][Pt][Cl] [cisplatin]
Aldefluor-positive cells (cancer stem cells) [7]: increased

detection of the compound in micelles formed by epirubicin-conjugated block copolymer [1]: unable to be detected in the micelles
SMILES: Cn1cc(C2=C(c3cn(C4CCN(Cc5ccccn5)CC4)c4ccccc34)C(=O)NC2=O)c2ccccc21 [enzastaurin]

SMILES: Nc1nc2[nH]cc(CCc3ccc(C(=O)N[C@@H](CCC(=O)O)C(=O)O)cc3)c2c(=O)[nH]1 [pemetrexed]
Aldefluor-positive cells (cancer stem cells) [7]: increased

detection of the compound in micelles formed by epirubicin-conjugated block copolymer [1]: able to be detected in the micelles
SMILES: COC(=O)[C@H]1[C@H]2C[C@@H]3c4[nH]c5cc(OC)ccc5c4CCN3C[C@H]2C[C@@H](OC(=O)c2cc(OC)c(OC)c(OC)c2)[C@@H]1OC [reserpine]

SMILES: CN[C@@H]1C[C@H]2O[C@@](C)([C@@H]1OC)n1c3ccccc3c3c4c(c5c6ccccc6n2c5c31)C(=O)NC4 [staurosporine]
elimination of drug (eFluxx-ID) from cells [8]: prevented elimination
elimination of drug (eFluxx-ID) from cells [9]: prevented elimination
elimination of drug (eFluxx-ID) from cells [10]: prevented elimination
Aldefluor-positive cells (cancer stem cells) [7]: decreased
dispersibility of staurosporine-incorporating epirubicin micelle ([1]; epirubicin:staurosporine weight ratio of 1:1): dispersibility increased
polydispersivity of staurosporine-incorporating epirubicin micelle ([1]; epirubicin:staurosporine weight ratio of 1:2, unsuitable as incorporating micelle): polydispersivity increased
incorporation of staurosporine in the epirubicin micelle ([1]; epirubicin:staurosporine weight ratio of 5:1): complete incorporation
detection of the compound in micelles formed by epirubicin-conjugated block copolymer [1]: able to be detected in the micelles
elimination of drug (eFluxx-ID) from cells [11]: prevented elimination
elimination of drug (eFluxx-ID) from cells [12]: prevented elimination
effect of addition of human α-acid glycoprotein (hAGP) on cell survival rate [13]: significant increase in cell survival rate

SMILES: COc1ccc(CCN(C)CCCC(C#N)(c2ccc(OC)c(OC)c2)C(C)C)cc1OC (stereo not drawn) [verapamil]
elimination of epirubicin and eFluxx-ID outside the cells [3]: localized within the cells
elimination of epirubicin and eFluxx-ID outside the cells [5]: localized within the cells

detection of the compound in micelles formed by epirubicin-conjugated block copolymer [1]: unable to be detected in the micelles
SMILES: CS(=O)(=O)c1ccc(C(=O)Nc2ccc(Cl)c(-c3ccccn3)c2)c(Cl)c1 [vismodegib]
